Where a SMILES comes first, the peptide text is derived from it. Bridges are numbered along the chain shown (N, C = ends). [ ]: non-standard residue; d: D form. The star is where a group is joined. hPhe(3,5-F2-4-CF3) = N[C@@H](CCc1cc(F)c(C(F)(F)F)c(F)c1)C(=O)O; hPhe(3-Cl-4-CF3) = N[C@@H](CCc1ccc(C(F)(F)F)c(Cl)c1)C(=O)O; NPrPhe(4-CF3) = CCCN[C@@H](Cc1ccc(C(F)(F)F)cc1)C(=O)O; NMeGly(cPent) = CN[C@H](C(=O)O)C1CCCC1; Gly(cBu) = N[C@H](C(=O)O)C1CCC1; NMeD = CN[C@@H](CC(=O)O)C(=O)O; NMeL = CN[C@@H](CC(C)C)C(=O)O; Morpholide = C1CN(*)CCO1; Ac5c = NC1(C(=O)O)CCCC1; Aze = O=C(O)[C@@H]1CCN1; Sar = CNCC(=O)O
Tests used:
[1] = molecular target: GDP-bound NRAS wild-type protein (Homo sapiens, UniProt P01111); assay: Binding to NRAS by surface plasmon resonance (SPR), Single Cycle Kinetics; conditions: SPR
Sequence of GDP-bound NRAS wild-type protein (P01111 whole entry): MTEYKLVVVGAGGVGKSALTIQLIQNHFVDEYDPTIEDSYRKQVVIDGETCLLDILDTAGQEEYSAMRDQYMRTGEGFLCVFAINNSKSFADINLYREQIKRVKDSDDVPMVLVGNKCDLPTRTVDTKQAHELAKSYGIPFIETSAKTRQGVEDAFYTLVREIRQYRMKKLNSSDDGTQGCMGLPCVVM

[2] = molecular target: GDP-bound HRAS wild-type protein (Homo sapiens, UniProt P01112); assay: Binding to HRAS by surface plasmon resonance (SPR), Single Cycle Kinetics; conditions: SPR
Sequence of GDP-bound HRAS wild-type protein (P01112 whole entry): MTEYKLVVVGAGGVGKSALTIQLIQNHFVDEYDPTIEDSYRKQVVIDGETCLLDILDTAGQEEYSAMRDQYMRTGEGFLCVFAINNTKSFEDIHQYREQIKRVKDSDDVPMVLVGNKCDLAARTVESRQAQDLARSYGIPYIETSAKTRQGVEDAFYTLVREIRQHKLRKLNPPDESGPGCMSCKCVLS

[3] = KD ratio NRAS/KRAS, GDP-bound wild-type proteins
[4] = KD ratio HRAS/KRAS, GDP-bound wild-type proteins

For `CCCN1C(=O)[C@@H]2CCN2C(=O)CN(C)C(=O)[C@H]([C@@H](C)CC)NC(=O)[C@H](CC(C)C)N(C)C(=O)C[C@@H](C(=O)N2CCOCC2)N(C)C(=O)[C@H](C2CCCC2)N(C)C(=O)C2(CCCC2)NC(=O)[C@@H]2CCCN2C(=O)[C@H](CCc2cc(F)c(C(F)(F)F)c(F)c2)NC(=O)CN(C)C(=O)[C@@H]1Cc1ccc(C(F)(F)F)cc1` [PP0789] ([NMeL]I[Sar][Aze][NPrPhe(4-CF3)][Sar][hPhe(3,5-F2-4-CF3)]P[Ac5c][NMeGly(cPent)][NMeD]-Morpholide; lactam N-11), the “NRAS/KRAS (ratio of KD value with respect to GDP-bound NRAS wild-type protein to KD value with respect to KRAS)” value ([1]; KD ratio NRAS/KRAS) was “C (A compound having a KD ratio of 0.1 or more and less than 3 is denoted as C)” and the “HRAS/KRAS (ratio of KD value with respect to GDP-bound HRAS wild-type protein to KD value with respect to KRAS)” value ([2]; KD ratio HRAS/KRAS) was “B (a compound having 3 or more and less than 10 is denoted as B)”.

In the case of `CCO[C@@H]1C[C@H]2C(=O)NC3(CCC3)C(=O)N(C)[C@@H](C3CCCC3)C(=O)N(C)[C@H](C(=O)N(C)C)CC(=O)N(C)[C@@H](C)C(=O)N[C@@H]([C@@H](C)CC)C(=O)N(C)CC(=O)N(C)[C@H]3CCCCN(C3=O)[C@@H](Cc3ccc(C(F)(F)F)cc3)C(=O)N(C)CC(=O)N[C@@H](CCc3cc(F)c(C(F)(F)F)c(F)c3)C(=O)N2C1` [PP0587], the “NRAS/KRAS (ratio of KD value with respect to GDP-bound NRAS wild-type protein to KD value with respect to KRAS)” value ([1]; KD ratio NRAS/KRAS) is reported as “C (A compound having a KD ratio of 0.1 or more and less than 3 is denoted as C)” and the “HRAS/KRAS (ratio of KD value with respect to GDP-bound HRAS wild-type protein to KD value with respect to KRAS)” value ([2]; KD ratio HRAS/KRAS) is reported as “C (A compound having a KD ratio of 0.1 or more and less than 3 is denoted as C)”.

In the case of `CC[C@H](C)[C@@H]1NC(=O)[C@H](COC)N(C)C(=O)C[C@@H](C(=O)N2CCOCC2)N(C)C(=O)[C@H](C2CCCC2)N(C)C(=O)C2(CCC2)NC(=O)[C@@H]2CCCN2C(=O)[C@H](CCc2cc(F)c(C(F)(F)F)c(F)c2)NC(=O)CN(C)C(=O)[C@H](Cc2ccc(C(F)(F)F)cc2)N2CCCCC[C@@H](C2=O)N(C)C(=O)[C@@H]2CCN2C1=O` [PP0865], the “NRAS/KRAS (ratio of KD value with respect to NRAS to KD value with respect to KRAS)” value ([1]; KD ratio, GDP-bound NRAS wild-type vs GDP-bound KRAS wild-type) is reported as “B (a compound having 3 or more and less than 10 is denoted as B)” and the “HRAS/KRAS (ratio of KD value with respect to HRAS to KD value with respect to KRAS)” value ([2]; KD ratio, GDP-bound HRAS wild-type vs GDP-bound KRAS wild-type) is reported as “B (a compound having 3 or more and less than 10 is denoted as B)”.

For `CC[C@H](C)[C@@H]1NC(=O)[C@@H]2CCC/C=C/c3ccc(cc3)C[C@@H](C(=O)N(C)CC(=O)N[C@@H](CCc3ccc(Cl)c(Cl)c3)C(=O)N3C[C@H](OC4CCC4)C[C@H]3C(=O)NC3(CC(C)(C)C3)C(=O)N(C)[C@@H](C3CCCC3)C(=O)N(C)[C@H](C(=O)N(C)CC)CC(=O)N2C)N2CC/C=C\C[C@@H](C2=O)N(C)C(=O)CN(C)C1=O` [PP3058], the “NRAS/KRAS (ratio of KD value with respect to GDP-bound NRAS wild-type protein to KD value with respect to KRAS)” value [1, 3] was “A (a compound having 10 or more and less than 20 is denoted as A)” and the “HRAS/KRAS (ratio of KD value with respect to GDP-bound HRAS wild-type protein to KD value with respect to KRAS)” value [2, 4] was “A (a compound having 10 or more and less than 20 is denoted as A)”.

With `C=CC[C@@H]1NC(=O)[C@H](CC2CC2)N(C)C(=O)C[C@@H](C(=O)N(C)CC=C)N(C)C(=O)[C@H](C2CCCC2)N(C)C(=O)C2(CCC2)NC(=O)[C@@H]2C[C@@H](OCC)CN2C(=O)[C@H](CCc2cc(F)c(C(F)(F)F)c(F)c2)NC(=O)CN(C)C(=O)[C@H](Cc2ccc(C(F)(F)F)cc2)N2CC/C=C\C[C@@H](C2=O)N(C)C(=O)CN(C)C1=O` [PP1557] the “NRAS/KRAS (ratio of KD value for GDP-bound NRAS wild-type protein to KD value for KRAS)” value ([1]; KD ratio class) was “A (a compound having 10 or more and less than 20 is denoted as A)” and the “HRAS/KRAS (ratio of KD value for GDP-bound HRAS wild-type protein to KD value for KRAS)” value ([2]; KD ratio class) was “A (a compound having 10 or more and less than 20 is denoted as A)”.

In the case of `CCCN1C(=O)CN(C)C(=O)CN(C)C(=O)[C@H](C2CCC2)NC(=O)[C@H](CC(C)C)N(C)C(=O)C[C@@H](C(=O)N2CCOCC2)N(C)C(=O)[C@H](C2CCCC2)N(C)C(=O)C2(CCCC2)NC(=O)[C@@H]2CCCN2C(=O)[C@H](CCc2ccc(C(F)(F)F)c(Cl)c2)NC(=O)CN(C)C(=O)[C@@H]1Cc1ccc(C(F)(F)F)cc1` [PP0250] ([NMeL][Gly(cBu)][Sar][Sar][NPrPhe(4-CF3)][Sar][hPhe(3-Cl-4-CF3)]P[Ac5c][NMeGly(cPent)][NMeD]-Morpholide; lactam N-11), the “NRAS/KRAS (ratio of KD for GDP-bound NRAS wild-type to KD for KRAS)” value ([1]; KD ratio NRAS/KRAS) is reported as “B (a compound having 3 or more and less than 10 is denoted as B)” and the “HRAS/KRAS (ratio of KD for GDP-bound HRAS wild-type to KD for KRAS)” value ([2]; KD ratio HRAS/KRAS) is reported as “C (A compound having a KD ratio of 0.1 or more and less than 3 is denoted as C)”.

With `CC[C@H](C)[C@@H]1NC(=O)[C@@H]2CCCCCCc3ccc(cc3)C[C@@H](C(=O)N(C)CC(=O)N[C@@H](CCc3ccc(C(F)(F)F)c(OC)c3)C(=O)N3C[C@H](OC(C)C)C[C@H]3C(=O)NC3(CC(C)(C)C3)C(=O)N(C)[C@@H](C3CCCC3)C(=O)N(C)[C@H](C(=O)N(C)C)CC(=O)N2C)N2CC/C=C\C[C@@H](C2=O)N(C)C(=O)CN(C)C1=O` [PP3067] the “NRAS/KRAS (ratio of KD value with respect to GDP-bound NRAS wild-type protein to KD value with respect to KRAS)” value [1, 3] was “A (a compound having 10 or more and less than 20 is denoted as A)” and the “HRAS/KRAS (ratio of KD value with respect to GDP-bound HRAS wild-type protein to KD value with respect to KRAS)” value [2, 4] was “B (a compound having 3 or more and less than 10 is denoted as B)”.
